Reference: patent US12545637B2, “Extrahepatic targeted cationic lipid compound with high efficiency and low toxicity and its composition” (BEIJING YOUCARE KECHUANG PHARMACEUTICAL TECHNOLOGY CO., LTD., priority 2023, dated 2026)

Columns and labels:
[1] = Particle size and polydispersity index (PDI) of lipid nanoparticles by dynamic light scattering; assay type: physicochemical
Protocol: The particle size and polydispersity index (PDI) were determined by dynamic light scattering using Malvern laser particle size analyzer.
10 μL of the liposome solution was weighed, diluted to 1 mL with RNase-free deionized water, and added to the sample pool. Each sample was measured in triplicate. The measurement conditions were: […] scattering angle, and 25° C.

[2] = Detection of encapsulation efficiency, drug loading concentration and total RNA concentration (RiboGreen); assay type: physicochemical
How it was run: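 LNP samples were diluted in 1×TE to approximately […], then mixed with 1×TE and 0.1% Triton X-100 buffers. After 10 minutes at 37 °C, RiboGreen (1:200) was added and fluorescence read against an mRNA standard, giving encapsulation efficiency, drug loading concentration and total RNA concentration.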

293T cells = assay: Cell survival rate assay (CCK-8); assay type: cell-based
How it was run: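 293T cells seeded at 10,000 cells/well, cultured overnight, then exposed 24 h to LNP carrying 1.5 μg Fluc-mRNA (cationic:neutral:structured:PEG-type lipid 49:10:39.5:1.5) or Lipofectamine 3000. Viability read by CCK-8, 1 h incubation, absorbance at 450 nm.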

[3] = LNP formulation prepared from the cationic lipid

Compound: CCCCCCCCC(CCCCCCCC)COC(=O)CCCCCN(CCCO)CCCN(CCCO)CCCCCC(=O)OCC(CCCCCCCC)CCCCCCCC [YK-423, di(2-octyldecyl) 6,6′-(propan-1,3-diyl-bis((3-hydroxypropyl)azanediyl))dihexanoate]
- PDI ([1]; LNP formulation of the cationic lipid, 25° C.): 11.7%
- Particle size ([1]; LNP formulation of the cationic lipid/DSPC/cholesterol/DMG-PEG2000 49:10:39.5:1.5, 25° C.): 175 nm
- Drug loading concentration [2, 3]: 37.47 µg/mL
- Encapsulation efficiency [2, 3]: 89.7%
- Total RNA concentration [2, 3]: 41.00 µg/mL
- encapsulation efficiency higher than ALC-0315 ([2]; difference vs ALC-0315): 26.4%
- encapsulation efficiency higher than HIMA ([2]; difference vs HIMA (HHMA)): 29.5%
- encapsulation efficiency higher than SM-102 ([2]; difference vs SM-102): 26.8%
- encapsulation efficiency higher than YK-009 ([2]; difference vs YK-009): 26.3%
- encapsulation efficiency higher than compound 21 ([2]; difference vs compound 21): 31.7%
- encapsulation efficiency higher than compound 23 ([2]; difference vs compound 23): 33.5%
- drug loading concentration, times that of ALC-0315 ([2]; ratio vs ALC-0315): 1.39
- total RNA concentration, times that of ALC-0315 ([2]; ratio vs ALC-0315): 1.08
- drug loading concentration, times that of HIMA ([2]; ratio vs HIMA (HHMA)): 1.15
- total RNA concentration, times that of HIMA ([2]; ratio vs HIMA (HHMA)): 1.13
- drug loading concentration, times that of SM-102 ([2]; ratio vs SM-102): 1.41
- total RNA concentration, times that of SM-102 ([2]; ratio vs SM-102): 1.14
- drug loading concentration, times that of YK-009 ([2]; ratio vs YK-009): 1.36
- total RNA concentration, times that of YK-009 ([2]; ratio vs YK-009): 1.06
- drug loading concentration, times that of compound 21 ([2]; ratio vs compound 21): 1.71
- total RNA concentration, times that of compound 21 ([2]; ratio vs compound 21): 1.42
- drug loading concentration, times that of compound 23 ([2]; ratio vs compound 23): 1.87
- total RNA concentration, times that of compound 23 ([2]; ratio vs compound 23): 1.32
- Cell survival rate (293T cells; LNP with 1.5 μg Fluc-mRNA, 24 hours, CCK-8): 71.14%
- cell survival rate higher than ALC-0315 (293T cells; difference vs ALC-0315): 23.93%
- cell survival rate higher than HIMA (293T cells; difference vs HIMA (HHMA)): 6.87%
- cell survival rate higher than Lipofectamine 3000 (293T cells; difference vs Lipofectamine 3000): 49.48%
- cell survival rate higher than SM-102 (293T cells; difference vs SM-102): 3.24%
- cell survival rate higher than YK-404 (293T cells; difference vs YK-404): 29.02%
- cell survival rate higher than YK-405 (293T cells; difference vs YK-405): 29.28%
- cell survival rate higher than YK-406 (293T cells; difference vs YK-406): 46.18%
- cell survival rate higher than YK-408 (293T cells; difference vs YK-408): 28.83%
- cell survival rate higher than YK-409 (293T cells; difference vs YK-409): 25.03%
- cell survival rate higher than YK-410 (293T cells; difference vs YK-410): 26.22%
- cell survival rate higher than YK-411 (293T cells; difference vs YK-411): 54.81%
- cell survival rate higher than YK-412 (293T cells; difference vs YK-412): 17.00%
- cell survival rate higher than YK-413 (293T cells; difference vs YK-413): 23.94%
- cell survival rate higher than YK-414 (293T cells; difference vs YK-414): 42.39%
- cell survival rate higher than YK-415 (293T cells; difference vs YK-415): 9.98%
- cell survival rate higher than YK-416 (293T cells; difference vs YK-416): 30.17%
- cell survival rate higher than YK-417 (293T cells; difference vs YK-417): 49.80%
- cell survival rate higher than YK-418 (293T cells; difference vs YK-418): 50.09%
- cell survival rate higher than YK-419 (293T cells; difference vs YK-419): 32.22%
- cell survival rate higher than YK-420 (293T cells; difference vs YK-420): 35.55%
- cell survival rate higher than YK-421 (293T cells; difference vs YK-421): 35.43%
- cell survival rate higher than YK-424 (293T cells; difference vs YK-424): 43.21%
- cell survival rate higher than compound 21 (293T cells; difference vs compound 21): 3.30%
- cell survival rate higher than compound 23 (293T cells; difference vs compound 23): 2.03%
- cytotoxicity reduced compared with YK-411 (293T cells; rounded summary statement vs YK-411): 50%
